This is an account of results in patent US9708287B2, “Chiral compounds, compositions, products and methods employing same” (Cayman Chemical Company Incorporated, priority 2012, dated 2017).

For this assay, the system named is human skin. Description: topical administration to a human in need of beautifying. In kind it is in vivo. The following applies: twice daily treatments, after several weeks. The method, then:
The chiral, non-racemic analog, (+) deoxyArbutin ((+)-dA), prepared as described in Example I is administered topically to a human in need of beautifying.

Turning to `Oc1ccc(OC2CCCCO2)cc1` (racemic) [(+) deoxyArbutin, 4-(tetrahydro-2H-pyran-2-yloxy)phenol], the “health and vitality of the treated areas of the skin” value was “increased health and vitality”; the “pigmentation of the treated areas of the skin” value is “decreased pigmentation”.
